Measurements as given in paper PMC9078697, “Discovery and preliminary SAR of 14-aryloxy-andrographolide derivatives as antibacterial agents with immunosuppressant activity” (RSC Advances, 2018).

Tests used:
Type in all cases: cell-based
[1] = test system: E. coli; assay: Bacteriostatic screening (growth, OD630) against E. coli; settings: for inhibition rate EC (symbol /): at 250 μM of tested compound; for inhibition rate (%) EC: at 250 μM of the tested compound
Experimental: (§1) The strategy in this study was to submit these synthesized compounds to a preliminary screening test against E. coli, S. aureus and E. faecalis (ciprofloxacin was used as a reference compound; see Table 1). […] The tested compound or ciprofloxacin (positive drug) was dissolved in DMSO and diluted with LB liquid medium into a stock solution containing 20% DMSO before use; the stock solution of the carrier was 20% DMSO in LB liquid medium. All the experiments, including blank controls, were performed in triplicate. Bacteriostatic screening was performed by applying a modified protocol of the National Committee on Clinical Laboratory Standards (NCCLS).[29] Briefly, E. coli, S. aureus and E. faecalis cells (American Type Culture Collection, ATCC) were grown in LB plate medium for one passage, then seeded in LB liquid medium and cultured at 37 °C for 12 h. After being diluted 1000 times, 190 μL diluted cells were aliquoted to 96-well plates; then, 10 μL stock solution of carrier or a gradient amount of the tested compound or the positive compound, ciprofloxacin, were added; the final concentration of DMSO was 1% in all wells. The blank controls contained 1% DMSO and LB medium but no bacterial cells.

[2] = test system: S. aureus; assay: Bacteriostatic screening (growth, OD630) against S. aureus; settings: for inhibition rate (%) SA: at 250 μM of the tested compound; for inhibition rate SA (symbol /): at 250 μM of tested compound
Experimental: as §1

[3] = test system: E. faecalis; assay: Bacteriostatic screening (growth, OD630) against E. faecalis; settings: for IC50: 24 h, IC50 generated when inhibition at 250 μM was higher than 80%; for inhibition rate (%) EF: at 250 μM of the tested compound
Experimental: as §1

| Compound | inhibition rate EC (symbol /) [1] | inhibition rate (%) SA ([2]; 250 µM) | IC50 [3] | inhibition rate (%) EF [3] | other results |
| --- | --- | --- | --- | --- | --- |
| C=C1CCC2C3(C)COC(C)(C)OC3CCC2(C)C1CC=C1C(=O)OCC1Oc1ccc([N+](=O)[O-])cc1C(=O)OC (stereo not drawn) [5a1, (14α)-(2′-Carboxymethyl ester-4′-nitro)phenoxy-3,19-acetonylidene andrographolide] | / (“/”represents no inhibition or lower than 10% inhibition rate at 250 μM of tested compound) | (14) % | 51.2 ± 11.6 µM |  |  |
| C=C1CCC2C3(C)COC(C)(C)OC3CCC2(C)C1CC=C1C(=O)OCC1Oc1ccc([N+](=O)[O-])cc1OC (stereo not drawn) [5a3, (14α)-(2′-Methoxy-4′-nitro)phenoxy-3,19-acetonylidene andrographolide] |  | (18) % |  |  | inhibition rate (%) EC [1]: (21) %; inhibition rate (%) EF ([3]; 250 µM): (60) % |
| C=C1CCC2C3(C)COC(C)(C)OC3CCC2(C)C1CC=C1C(=O)OCC1Oc1ccc([N+](=O)[O-])c(F)c1 (stereo not drawn) [5a4, (14α)-(3′-Fluoro-4′-nitro)phenoxy-3,19-acetonylidene andrographolide] | / (“/”represents no inhibition or lower than 10% inhibition rate at 250 μM of tested compound) |  |  | (46) % | inhibition rate SA (symbol /) [2]: / (“/”represents no inhibition or lower than 10% inhibition rate at 250 μM of tested compound) |
| C=C1CCC2C3(C)COC(C)(C)OC3CCC2(C)C1CC=C1C(=O)OCC1Oc1ccc([N+](=O)[O-])c(OC)c1 (stereo not drawn) [5a5, (14α)-(3′-Methoxy-4′-nitro)phenoxy-3,19-acetonylidene andrographolide] |  | (10) % |  |  | inhibition rate (%) EC ([1]; 250 µM): (12) %; inhibition rate (%) EF ([3]; 250 µM): (73) % |
| C=C1CCC2C3(C)COC(C)(C)OC3CCC2(C)C1CC=C1C(=O)OCC1Oc1ccccc1C(=O)OCC (stereo not drawn) [5a8, (14α)-(2′-Carboxyethyl ester)phenoxy-3,19-acetonylidene andrographolide] |  |  |  | (33) % | inhibition rate (%) EC [1]: (32) %; inhibition rate (%) SA [2]: (20) % |
| C=C1CCC2C3(C)COC(C)(C)OC3CCC2(C)C1CC=C1C(=O)OCC1Oc1ccc(C(=O)OCC)cc1 (stereo not drawn) [5a9, (14α)-(4′-Carboxyethyl ester)phenoxy-3,19-acetonylidene andrographolide] | / (“/”represents no inhibition or lower than 10% inhibition rate at 250 μM of tested compound) |  |  | (45) % | inhibition rate (%) SA [2]: (10) % |
| C=C1CCC2C3(C)COC(C)(C)OC3CCC2(C)C1CC=C1C(=O)OCC1Oc1ccccc1OC (stereo not drawn) [5a12, (14α)-(2′-Methoxy)phenoxy-3,19-acetonylidene andrographolide] | / (“/”represents no inhibition or lower than 10% inhibition rate at 250 μM of tested compound) |  |  |  | inhibition rate SA (symbol /) [2]: / (“/”represents no inhibition or lower than 10% inhibition rate at 250 μM of tested compound); inhibition rate (%) EF ([3]; 250 µM): (49) % |
| C=C1CCC2C3(C)COC(C)(C)OC3CCC2(C)C1CC=C1C(=O)OCC1Oc1cccnc1[N+](=O)[O-] (stereo not drawn) [5a15, (14α)-(2′-Nitro-pyridinyl-3′-oxy)-3,19-acetonylidene andrographolide] |  | (11) % | 25.5 ± 1.5 µM |  | inhibition rate (%) EC [1]: (13) % |
| C=C1CCC2C3(C)COC(C)(C)OC3CCC2(C)C1CC=C1C(=O)OCC1Oc1ccnc2ccccc12 (stereo not drawn) [5a16, (14α)-(Quinolyl-4′-oxy)-3,19-acetonylidene andrographolide] | / (“/”represents no inhibition or lower than 10% inhibition rate at 250 μM of tested compound) |  | 16.9 ± 5.9 µM |  | inhibition rate (%) SA [2]: (14) % |
| C=C1CCC2C3(C)COC(C)(C)OC3CCC2(C)C1CC=C1C(=O)OCC1Oc1ccc([N+](=O)[O-])cc1C(=O)OC (stereo not drawn) [5b1, (14β)-(2′-Carboxymethyl ester-4′-nitro)phenoxy-3,19-acetonylidene andrographolide] |  | (20) % |  | (56) % | inhibition rate (%) EC [1]: (22) % |
| C=C1CCC2C3(C)COC(C)(C)OC3CCC2(C)C1CC=C1C(=O)OCC1Oc1ccc([N+](=O)[O-])cc1F (stereo not drawn) [5b2, (14β)-(2′-Fluoro-4′-nitro)phenoxy-3,19-acetonylidene andrographolide] |  |  |  | (56) % | inhibition rate (%) EC [1]: (11) %; inhibition rate (%) SA [2]: (26) % |
| C=C1CCC2C3(C)COC(C)(C)OC3CCC2(C)C1CC=C1C(=O)OCC1Oc1ccc([N+](=O)[O-])cc1OC (stereo not drawn) [5b3, (14β)-(2′-Methoxy-4′-nitro)phenoxy-3,19-acetonylidene andrographolide] | / (“/”represents no inhibition or lower than 10% inhibition rate at 250 μM of tested compound) | (16) % |  |  | inhibition rate (%) EF ([3]; 250 µM): (19) % |
| C=C1CCC2C3(C)COC(C)(C)OC3CCC2(C)C1CC=C1C(=O)OCC1Oc1ccc([N+](=O)[O-])c(OC)c1 (stereo not drawn) [5b5, (14β)-(3′-Methoxy-4′-nitro)phenoxy-3,19-acetonylidene andrographolide] |  | (32) % |  |  | inhibition rate (%) EC ([1]; 250 µM): (18) %; inhibition rate (%) EF ([3]; 250 µM): (34) % |
| C=C1CCC2C3(C)COC(C)(C)OC3CCC2(C)C1CC=C1C(=O)OCC1Oc1cccc([N+](=O)[O-])c1 (stereo not drawn) [5b7, (14β)-(3′-Nitro)phenoxy-3,19-acetonylidene andrographolide] | / (“/”represents no inhibition or lower than 10% inhibition rate at 250 μM of tested compound) |  |  |  | inhibition rate SA (symbol /) [2]: / (“/”represents no inhibition or lower than 10% inhibition rate at 250 μM of tested compound); inhibition rate EF (symbol /) ([3]; at 250 μM of tested compound): / (“/”represents no inhibition or lower than 10% inhibition rate at 250 μM of tested compound) |
| C=C1CCC2C3(C)COC(C)(C)OC3CCC2(C)C1CC=C1C(=O)OCC1Oc1ccc(OC)cc1 (stereo not drawn) [5b11, (14β)-(4′-Methoxy)phenoxy-3,19-acetonylidene andrographolide] | / (“/”represents no inhibition or lower than 10% inhibition rate at 250 μM of tested compound) |  |  | (39) % | inhibition rate SA (symbol /) [2]: / (“/”represents no inhibition or lower than 10% inhibition rate at 250 μM of tested compound) |
| C=C1CCC2C3(C)COC(C)(C)OC3CCC2(C)C1CC=C1C(=O)OCC1Oc1ccccc1OC (stereo not drawn) [5b12, (14β)-(2′-Methoxy)phenoxy-3,19-acetonylidene andrographolide] | / (“/”represents no inhibition or lower than 10% inhibition rate at 250 μM of tested compound) |  |  |  | inhibition rate (%) SA [2]: (24) %; inhibition rate (%) EF ([3]; 250 µM): (52) % |
| C=C1CCC2C3(C)COC(C)(C)OC3CCC2(C)C1CC=C1C(=O)OCC1Oc1cccc(OC)c1 (stereo not drawn) [5b13, (14β)-(3′-Methoxy)phenoxy-3,19-acetonylidene andrographolide] | / (“/”represents no inhibition or lower than 10% inhibition rate at 250 μM of tested compound) |  |  | (17) % | inhibition rate SA (symbol /) [2]: / (“/”represents no inhibition or lower than 10% inhibition rate at 250 μM of tested compound) |
| C=C1CCC2C3(C)COC(C)(C)OC3CCC2(C)C1CC=C1C(=O)OCC1Oc1cccc2ccccc12 (stereo not drawn) [5b14, (14β)-(Naphthyl-1′-oxy)-3,19-acetonylidene andrographolide] | / (“/”represents no inhibition or lower than 10% inhibition rate at 250 μM of tested compound) |  |  | (47) % | inhibition rate SA (symbol /) [2]: / (“/”represents no inhibition or lower than 10% inhibition rate at 250 μM of tested compound) |
| C=C1CCC2C3(C)COC(C)(C)OC3CCC2(C)C1CC=C1C(=O)OCC1Oc1cccnc1[N+](=O)[O-] (stereo not drawn) [5b15, (14β)-(2′-Nitro-pyridinyl-3′-oxy)-3,19-acetonylidene andrographolide] | / (“/”represents no inhibition or lower than 10% inhibition rate at 250 μM of tested compound) | (33) % | 38.4 ± 3.4 µM |  |  |
| C=C1CCC2C(C)(CO)C(O)CCC2(C)C1CC=C1C(=O)OCC1Oc1ccc([N+](=O)[O-])cc1F (stereo not drawn) [6a2, (14α)-(2′-Fluoro-4′-nitro)phenoxy-andrographolide] |  | (65) % | 38.7 ± 4.5 µM |  | inhibition rate (%) EC ([1]; 250 µM): (67) % |
| C=C1CCC2C(C)(CO)C(O)CCC2(C)C1CC=C1C(=O)OCC1Oc1ccc([N+](=O)[O-])cc1OC (stereo not drawn) [6a3, (14α)-(2′-Methoxy-4′-nitro)phenoxy-andrographolide] |  | (17) % | 113 ± 14.3 µM |  | inhibition rate (%) EC ([1]; 250 µM): (31) % |
| C=C1CCC2C(C)(CO)C(O)CCC2(C)C1CC=C1C(=O)OCC1Oc1ccc([N+](=O)[O-])c(F)c1 (stereo not drawn) [6a4, (14α)-(3′-Fluoro-4′-nitro)phenoxy-andrographolide] | / (“/”represents no inhibition or lower than 10% inhibition rate at 250 μM of tested compound) |  |  | (44) % | inhibition rate SA (symbol /) [2]: / (“/”represents no inhibition or lower than 10% inhibition rate at 250 μM of tested compound) |
| C=C1CCC2C(C)(CO)C(O)CCC2(C)C1CC=C1C(=O)OCC1Oc1ccc([N+](=O)[O-])c(OC)c1 (stereo not drawn) [6a5, (14α)-(3′-methoxy-4′-nitro)phenoxy-andrographolide] |  | (10) % | 50.4 ± 2.7 µM |  | inhibition rate (%) EC ([1]; 250 µM): (11) % |
| C=C1CCC2C(C)(CO)C(O)CCC2(C)C1CC=C1C(=O)OCC1Oc1ccccc1C(=O)OCC (stereo not drawn) [6a8, (14α)-(2′-Carboxyethyl ester)phenoxy-andrographolide] |  |  | 83.3 ± 8.3 µM |  | inhibition rate (%) EC [1]: (21) %; inhibition rate (%) SA [2]: (17) % |
